In ChEMBL document CHEMBL3102795, “Discovery of 1-oxa-4,9-diazaspiro[5.5]undecane-based trisubstituted urea derivatives as highly potent soluble epoxide hydrolase inhibitors and orally active drug candidates for treating of chronic kidney diseases” (Bioorg Med Chem Lett, 2014):
In brackets after ≈: the same amount, converted by molar mass.

Test system: not listed separately
Assay: Solubility of the compound in simulated intestinal fluid compliant with Japanese pharmacopeia
Assay type: ADME

Going from O=C1Cc2cc(C(=O)N3CCC4(CC3)CN(C(=O)Nc3ccc(OC(F)(F)F)cc3)CCO4)ccc2N1 to O=C(Nc1ccc(OC(F)(F)F)cc1)N1CCOC2(CCN(C(=O)c3c(F)cccc3F)CC2)C1, the solubility falls from 93 µg/mL (≈ 179 µM) to 39 µg/mL (≈ 78.1 µM) (2.4-fold).

Going from N#Cc1ccc(C(=O)N2CCC3(CC2)CN(C(=O)Nc2ccc(C(F)(F)F)cc2)CCO3)cc1 to O=C(Nc1ccc(C(F)(F)F)cc1)N1CCOC2(CCN(C(=O)c3cccc(Cl)c3)CC2)C1, the solubility falls from 82 µg/mL (≈ 174 µM) to 21 µg/mL (≈ 43.6 µM) (3.9-fold).

CC(C)(C)C(=O)N1CCC2(CC1)CN(C(=O)Nc1ccc(C(F)(F)F)cc1)CCO2 and O=C(CC1CC1)N1CCC2(CC1)CN(C(=O)Nc1ccc(C(F)(F)F)cc1)CCO2 are within 1.5-fold of each other in solubility: 73 µg/mL (≈ 171 µM) for the first, 79 µg/mL (≈ 186 µM) for the second.

Compared with CC(=O)Nc1ccccc1C(=O)N1CCC2(CC1)CN(C(=O)Nc1ccc(C(F)(F)F)cc1)CCO2, O=C(Nc1ccc(C(F)(F)F)cc1)N1CCOC2(CCN(C(=O)c3ccccc3Cl)CC2)C1 is 7.8-fold lower in solubility: 93 µg/mL (≈ 184 µM) for the first, 12 µg/mL (≈ 24.9 µM) for the second.

O=C(Nc1ccc(OC(F)(F)F)cc1)N1CCOC2(CCN(C(=O)C3(c4ccccc4)CC3)CC2)C1 and O=C(Nc1ccc(OC(F)(F)F)cc1)N1CCC2(CC1)CN(C(=O)c1c(F)cccc1F)CCO2 are within 1.5-fold of each other in solubility: 33 µg/mL (≈ 65.5 µM) for the first, 46 µg/mL (≈ 92.1 µM) for the second.

Going from O=C(Nc1ccc(OC(F)(F)F)cc1)N1CCOC2(CCN(C(=O)C3CCCCC3)CC2)C1 to O=C(Nc1ccc(C(F)(F)F)cc1)N1CCOC2(CCN(C(=O)c3c(F)cccc3F)CC2)C1, the solubility falls from 63 µg/mL (≈ 134 µM) to 38 µg/mL (≈ 78.6 µM) (1.7-fold).

Test system: not listed separately
Assay: Solubility of the compound in simulated gastric fluid compliant with Japanese pharmacopeia
Assay type: ADME

Going from O=C1Cc2cc(C(=O)N3CCC4(CC3)CN(C(=O)Nc3ccc(OC(F)(F)F)cc3)CCO4)ccc2N1 to O=C(Nc1ccc(OC(F)(F)F)cc1)N1CCOC2(CCN(C(=O)c3c(F)cccc3F)CC2)C1, the solubility falls from 96 µg/mL (≈ 185 µM) to 44 µg/mL (≈ 88.1 µM) (2.2-fold).

Compared with N#Cc1ccc(C(=O)N2CCC3(CC2)CN(C(=O)Nc2ccc(C(F)(F)F)cc2)CCO3)cc1, O=C(Nc1ccc(C(F)(F)F)cc1)N1CCOC2(CCN(C(=O)c3cccc(Cl)c3)CC2)C1 is 3.3-fold lower in solubility: 85 µg/mL (≈ 180 µM) for the first, 26 µg/mL (≈ 54 µM) for the second.

CC(C)(C)C(=O)N1CCC2(CC1)CN(C(=O)Nc1ccc(C(F)(F)F)cc1)CCO2 and O=C(CC1CC1)N1CCC2(CC1)CN(C(=O)Nc1ccc(C(F)(F)F)cc1)CCO2 are within 1.5-fold of each other in solubility: 76 µg/mL (≈ 178 µM) for the first, 79 µg/mL (≈ 186 µM) for the second.

First: CC(=O)Nc1ccccc1C(=O)N1CCC2(CC1)CN(C(=O)Nc1ccc(C(F)(F)F)cc1)CCO2
Second: O=C(Nc1ccc(C(F)(F)F)cc1)N1CCOC2(CCN(C(=O)c3ccccc3Cl)CC2)C1
The solubility of the first is 9.2-fold higher: 92 µg/mL (≈ 182 µM) for the first, 10 µg/mL (≈ 20.8 µM) for the second.

O=C(Nc1ccc(OC(F)(F)F)cc1)N1CCOC2(CCN(C(=O)C3(c4ccccc4)CC3)CC2)C1 and O=C(Nc1ccc(OC(F)(F)F)cc1)N1CCC2(CC1)CN(C(=O)c1c(F)cccc1F)CCO2 are within 1.5-fold of each other in solubility: 37 µg/mL (≈ 73.5 µM) for the first, 52 µg/mL (≈ 104 µM) for the second.

Going from O=C(Nc1ccc(OC(F)(F)F)cc1)N1CCOC2(CCN(C(=O)C3CCCCC3)CC2)C1 to O=C(Nc1ccc(C(F)(F)F)cc1)N1CCOC2(CCN(C(=O)c3c(F)cccc3F)CC2)C1, the solubility falls from 69 µg/mL (≈ 147 µM) to 43 µg/mL (≈ 88.9 µM) (1.6-fold).

Target: T1, Bifunctional epoxide hydrolase 2 (Homo sapiens, UniProt P34913)
T1 sequence (P34913 whole entry): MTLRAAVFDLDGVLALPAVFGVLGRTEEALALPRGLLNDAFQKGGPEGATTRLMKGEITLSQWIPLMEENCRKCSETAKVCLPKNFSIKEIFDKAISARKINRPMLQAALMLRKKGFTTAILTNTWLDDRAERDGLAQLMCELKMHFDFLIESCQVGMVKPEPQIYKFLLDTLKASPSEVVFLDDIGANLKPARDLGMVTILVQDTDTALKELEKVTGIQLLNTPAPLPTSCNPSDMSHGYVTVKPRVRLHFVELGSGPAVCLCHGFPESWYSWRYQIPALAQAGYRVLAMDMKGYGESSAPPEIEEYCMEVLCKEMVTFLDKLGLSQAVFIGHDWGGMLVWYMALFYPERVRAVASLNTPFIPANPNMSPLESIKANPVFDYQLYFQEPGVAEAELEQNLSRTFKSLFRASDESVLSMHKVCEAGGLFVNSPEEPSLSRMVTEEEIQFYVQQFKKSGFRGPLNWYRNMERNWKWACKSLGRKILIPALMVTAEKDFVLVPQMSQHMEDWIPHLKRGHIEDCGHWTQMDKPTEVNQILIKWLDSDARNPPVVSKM
Assay: Inhibition of human recombinant sEH expressed in baculovirus infected insect Sf9 cells using cyano(6-methoxynaphthalen-2-yl)methyl trans-[(3-phenyloxiran-2-yl)methyl] carbonate as substrate preincubated for 30 mins followed by substrate addition measured after 20 to 45 mins by fluorescence assay

First: O=C(Nc1ccc(OC(F)(F)F)cc1)N1CCC2(CCCN(C(=O)c3c(F)cccc3F)C2)CC1
Second: O=C(Nc1ccc(OC(F)(F)F)cc1)N1CCC2(CC1)CN(C(=O)c1c(F)cccc1F)CCO2
The IC50 of the first is 1.8-fold lower: 2.96 nM for the first, 5.4 nM for the second.

First: O=C1Cc2cc(C(=O)N3CCC4(CC3)CN(C(=O)Nc3ccc(OC(F)(F)F)cc3)CCO4)ccc2N1
Second: O=C(Nc1ccc(OC(F)(F)F)cc1)N1CCOC2(CCN(C(=O)c3c(F)cccc3F)CC2)C1
The IC50 of the first is 2.6-fold higher: 1.8 nM for the first, 0.7 nM for the second.

Going from N#Cc1ccc(C(=O)N2CCC3(CC2)CN(C(=O)Nc2ccc(C(F)(F)F)cc2)CCO3)cc1 to O=C(Nc1ccc(C(F)(F)F)cc1)N1CCOC2(CCN(C(=O)c3cccc(Cl)c3)CC2)C1, the IC50 falls from 1.9 nM to 1.2 nM (1.6-fold). The second is the more potent here.

CC(C)(C)C(=O)N1CCC2(CC1)CN(C(=O)Nc1ccc(C(F)(F)F)cc1)CCO2 and O=C(CC1CC1)N1CCC2(CC1)CN(C(=O)Nc1ccc(C(F)(F)F)cc1)CCO2 are within 1.5-fold of each other in IC50: 2.9 nM for the first, 2.1 nM for the second.

First: CC(=O)Nc1ccccc1C(=O)N1CCC2(CC1)CN(C(=O)Nc1ccc(C(F)(F)F)cc1)CCO2
Second: O=C(Nc1ccc(C(F)(F)F)cc1)N1CCOC2(CCN(C(=O)c3ccccc3Cl)CC2)C1
The IC50 of the first is 1.7-fold lower: 0.8 nM for the first, 1.4 nM for the second.

O=C(Nc1ccc(OC(F)(F)F)cc1)N1CCOC2(CCN(C(=O)C3(c4ccccc4)CC3)CC2)C1 and O=C(Nc1ccc(OC(F)(F)F)cc1)N1CCOC2(CCN(C(=O)C3CCCCC3)CC2)C1 are within 1.5-fold of each other in IC50: 0.4 nM for the first, 0.6 nM for the second.

In the case of O=C(Nc1ccc(C(F)(F)F)cc1)N1CCOC2(CCN(C(=O)c3c(F)cccc3F)CC2)C1, the IC50 is reported as 1.3 nM.

Target: T2, Bifunctional epoxide hydrolase 2 (Rattus norvegicus, UniProt P80299)
T2 sequence (P80299 whole entry): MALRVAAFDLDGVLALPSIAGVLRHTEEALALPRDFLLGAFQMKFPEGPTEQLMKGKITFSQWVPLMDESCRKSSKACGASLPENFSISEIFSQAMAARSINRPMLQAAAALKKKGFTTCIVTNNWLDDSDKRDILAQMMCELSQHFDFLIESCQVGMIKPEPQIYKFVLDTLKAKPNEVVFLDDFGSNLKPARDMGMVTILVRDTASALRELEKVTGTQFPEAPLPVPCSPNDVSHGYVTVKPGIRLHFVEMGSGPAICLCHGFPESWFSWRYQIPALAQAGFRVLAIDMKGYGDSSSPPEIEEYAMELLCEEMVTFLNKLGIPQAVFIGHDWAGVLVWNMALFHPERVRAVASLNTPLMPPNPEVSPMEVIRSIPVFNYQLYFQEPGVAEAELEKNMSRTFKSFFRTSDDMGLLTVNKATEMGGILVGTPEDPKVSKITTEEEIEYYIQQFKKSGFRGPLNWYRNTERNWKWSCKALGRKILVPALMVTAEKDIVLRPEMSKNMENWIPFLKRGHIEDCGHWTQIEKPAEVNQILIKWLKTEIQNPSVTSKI
Assay: Inhibition of rat recombinant sEH expressed in baculovirus infected insect Sf9 cells using cyano(6-methoxynaphthalen-2-yl)methyl trans-[(3-phenyloxiran-2-yl)methyl] carbonate as substrate preincubated for 30 mins followed by substrate addition measured after 20 to 45 mins by fluorescence assay

First: O=C1Cc2cc(C(=O)N3CCC4(CC3)CN(C(=O)Nc3ccc(OC(F)(F)F)cc3)CCO4)ccc2N1
Second: O=C(Nc1ccc(OC(F)(F)F)cc1)N1CCOC2(CCN(C(=O)c3c(F)cccc3F)CC2)C1
The IC50 of the first is higher: greater than 20 nM for the first, 18.5 nM for the second.

Compared with N#Cc1ccc(C(=O)N2CCC3(CC2)CN(C(=O)Nc2ccc(C(F)(F)F)cc2)CCO3)cc1, O=C(Nc1ccc(C(F)(F)F)cc1)N1CCOC2(CCN(C(=O)c3cccc(Cl)c3)CC2)C1 is 2.5-fold higher in IC50: 15 nM for the first, 36.9 nM for the second.

Going from CC(C)(C)C(=O)N1CCC2(CC1)CN(C(=O)Nc1ccc(C(F)(F)F)cc1)CCO2 to O=C(CC1CC1)N1CCC2(CC1)CN(C(=O)Nc1ccc(C(F)(F)F)cc1)CCO2, the IC50 rises from 12 nM to 31.4 nM (2.6-fold). The first is the more potent here.

Going from CC(=O)Nc1ccccc1C(=O)N1CCC2(CC1)CN(C(=O)Nc1ccc(C(F)(F)F)cc1)CCO2 to O=C(Nc1ccc(C(F)(F)F)cc1)N1CCOC2(CCN(C(=O)c3ccccc3Cl)CC2)C1, the IC50 rises from 6.8 nM to 13 nM (1.9-fold). The first is the more potent here.

Going from O=C(Nc1ccc(OC(F)(F)F)cc1)N1CCOC2(CCN(C(=O)C3(c4ccccc4)CC3)CC2)C1 to O=C(Nc1ccc(OC(F)(F)F)cc1)N1CCOC2(CCN(C(=O)C3CCCCC3)CC2)C1, the IC50 falls from 28 nM to 14.5 nM (1.9-fold).

Work on O=C(Nc1ccc(C(F)(F)F)cc1)N1CCOC2(CCN(C(=O)c3c(F)cccc3F)CC2)C1 yielded an IC50 of 19.1 nM.

Test system: Liver microsome
Assay: Metabolic stability in human liver microsomes measured per mg of protein
Assay type: ADME

First: O=C1Cc2cc(C(=O)N3CCC4(CC3)CN(C(=O)Nc3ccc(OC(F)(F)F)cc3)CCO4)ccc2N1
Second: O=C(Nc1ccc(OC(F)(F)F)cc1)N1CCOC2(CCN(C(=O)c3c(F)cccc3F)CC2)C1
The CLint of the first is 3-fold lower: 29 µL/min/mg for the first, 86 µL/min/mg for the second.

Going from N#Cc1ccc(C(=O)N2CCC3(CC2)CN(C(=O)Nc2ccc(C(F)(F)F)cc2)CCO3)cc1 to O=C(Nc1ccc(C(F)(F)F)cc1)N1CCOC2(CCN(C(=O)c3cccc(Cl)c3)CC2)C1, the CLint rises from 3 µL/min/mg to 100 µL/min/mg (33-fold).

CC(C)(C)C(=O)N1CCC2(CC1)CN(C(=O)Nc1ccc(C(F)(F)F)cc1)CCO2 and O=C(CC1CC1)N1CCC2(CC1)CN(C(=O)Nc1ccc(C(F)(F)F)cc1)CCO2 are within 1.5-fold of each other in CLint: 98 µL/min/mg for the first, 74 µL/min/mg for the second.

CC(=O)Nc1ccccc1C(=O)N1CCC2(CC1)CN(C(=O)Nc1ccc(C(F)(F)F)cc1)CCO2 and O=C(Nc1ccc(C(F)(F)F)cc1)N1CCOC2(CCN(C(=O)c3ccccc3Cl)CC2)C1 are within 1.5-fold of each other in CLint: 39 µL/min/mg for the first, 48 µL/min/mg for the second.

Compared with O=C(Nc1ccc(OC(F)(F)F)cc1)N1CCOC2(CCN(C(=O)C3(c4ccccc4)CC3)CC2)C1, O=C(Nc1ccc(OC(F)(F)F)cc1)N1CCOC2(CCN(C(=O)C3CCCCC3)CC2)C1 is 1.6-fold higher in CLint: 228 µL/min/mg for the first, 357 µL/min/mg for the second.

Compound O=C(Nc1ccc(C(F)(F)F)cc1)N1CCOC2(CCN(C(=O)c3c(F)cccc3F)CC2)C1 has a CLint of 93 µL/min/mg.
